{
  "source": "patent US12370203B2",
  "about": "“Pharmaceutical compositions and methods of making on demand solid dosage formulations” (Eastern Virginia Medical School, priority 2018, dated 2025)",
  "key": {"[1]": {"test_system": "HSV", "test": "Anti-HSV activity of tenofovir prodrugs", "type": "cell-based"}, "[2]": {"test_system": "HIV", "test": "Cervical vaginal (CV) tissue explant HIV infection (p24 production, AUC)", "type": "cell-based", "description": "FIGS. 1A, 1B and 1C show EVG dose response plots on p24 production."}, "[3]": {"test": "EVG concentration in CV tissues", "type": "in vitro ADME", "method": "FIG. 2 is a graph showing EVG concentrations in infected vs. not infected CV tissues. Median concentrations and ranges (min and max) are shown. PA=Protein adjusted. […] Based on the data, it can be extrapolated that EVG tissue concentrations of >1000 ng/g provided 100% HIV prophylaxis. (FIG. 2)."}},
  "note": "Where a name gives a salt, the structure may show the parent alone.",
  "data": [
    {"smiles": "CC(C)OC(=O)OCOP(=O)(CO[C@H](C)Cn1cnc2c(N)ncnc21)OCOC(=O)OC(C)C", "note": "[TDF, tenofovir disoproxil fumarate]", "values": [
      {"measurement": "activity against HSV", "setting": "[1]", "value": "improved activity against HSV"}
    ]},
    {"smiles": "C[C@H](Cn1cnc2c(N)ncnc21)OCP(=O)(O)O", "note": "[TFV, tenofovir]", "values": [
      {"measurement": "activity against HSV", "setting": "[1]", "value": "improved activity against HSV"}
    ]},
    {"smiles": "Nc1nc2c(ncn2COCCO)c(=O)[nH]1", "note": "[acyclovir (ACV), acyclovir]", "values": [
      {"measurement": "activity against HSV", "setting": "[1]", "value": "improved activity against HSV"}
    ]},
    {"smiles": "CC(C)OC(=O)[C@H](C)N[P@](=O)(CO[C@H](C)Cn1cnc2c(N)ncnc21)Oc1ccccc1", "note": "[TAF, tenofovir alafenamide fumarate]", "values": [
      {"measurement": "activity against HSV", "setting": "[1]", "value": "most potent"}
    ]},
    {"smiles": "COc1cc2c(cc1Cc1cccc(Cl)c1F)c(=O)c(C(=O)O)cn2[C@H](CO)C(C)C", "note": "[EVG, elvitegravir]", "values": [
      {"measurement": "% protection of mean AUC versus HIV control", "setting": "[2]; Co-exposure, virus and EVG added together, EVG 0.1 μg/ml", "value": 97.56, "unit": "%"},
      {"measurement": "% protection of mean AUC versus HIV control", "setting": "[2]; Co-exposure, virus and EVG added together, EVG 1 μg/ml", "value": 100, "unit": "%"},
      {"measurement": "% protection of mean AUC versus HIV control", "setting": "[2]; Post-exposure 4 h, EVG 0.1 μg/ml", "value": 86, "unit": "%"},
      {"measurement": "% protection of mean AUC versus HIV control", "setting": "[2]; Post-exposure 4 h, EVG 1 μg/ml", "value": 99.56, "unit": "%"},
      {"measurement": "% protection of mean AUC versus HIV control", "setting": "[2]; Post-exposure 4 h, EVG 10 μg/ml", "value": 100, "unit": "%"},
      {"measurement": "% protection of mean AUC versus HIV control", "setting": "[2]; Post-exposure 9 h, EVG 0.1 μg/ml", "value": 85.85, "unit": "%"},
      {"measurement": "% protection of mean AUC versus HIV control", "setting": "[2]; Post-exposure 9 h, EVG 1 μg/ml", "value": 100, "unit": "%"},
      {"measurement": "% protection of mean AUC versus HIV control", "setting": "[2]; Post-exposure 9 h, EVG 10 μg/ml", "value": 100, "unit": "%"},
      {"measurement": "% protection of mean AUC versus HIV control", "setting": "[2]; Post-exposure 14 h, EVG 10 μg/ml", "value": 100, "unit": "%"},
      {"measurement": "% protection of mean AUC versus HIV control", "setting": "[2]; Post-exposure 24 h, EVG 10 μg/ml", "value": 100, "unit": "%"},
      {"measurement": "% protection of mean AUC versus HIV control", "setting": "[2]; Pre-exposure 0 h, EVG 0.1 μg/ml", "value": 34.5, "unit": "%"},
      {"measurement": "% protection of mean AUC versus HIV control", "setting": "[2]; Pre-exposure 0 h, EVG 1 μg/ml", "value": 99.97, "unit": "%"},
      {"measurement": "% protection of mean AUC versus HIV control", "setting": "[2]; Pre-exposure 0 h, EVG 10 μg/ml", "value": 100, "unit": "%"},
      {"measurement": "% protection of mean AUC versus HIV control", "setting": "[2]; Pre-exposure 7 h, EVG 0.1 μg/ml", "value": 21.53, "unit": "%"},
      {"measurement": "% protection of mean AUC versus HIV control", "setting": "[2]; Pre-exposure 7 h, EVG 1 μg/ml", "value": 99.1, "unit": "%"},
      {"measurement": "% protection of mean AUC versus HIV control", "setting": "[2]; Pre-exposure 7 h, EVG 10 μg/ml", "value": 100, "unit": "%"},
      {"measurement": "% protection of mean AUC versus HIV control", "setting": "[2]; Pre-exposure 24 h, EVG 0.1 μg/ml", "value": 44.8, "unit": "%"},
      {"measurement": "% protection of mean AUC versus HIV control", "setting": "[2]; Pre-exposure 24 h, EVG 1 μg/ml", "value": 99.51, "unit": "%"},
      {"measurement": "% protection of mean AUC versus HIV control", "setting": "[2]; Pre-exposure 24 h, EVG 10 μg/ml", "value": 100, "unit": "%"},
      {"measurement": "EVG tissue concentration that provided 100% HIV prophylaxis", "setting": "[3]; extrapolated from CV tissue data", "value": "> 1000", "unit": "ng/g"},
      {"measurement": "median EVG concentration in CV tissues", "setting": "[3]; following 4 h of exposure to 1 μg/ml of EVG", "value": 1150, "unit": "ng/g"},
      {"measurement": "median EVG concentration in CV tissues", "setting": "[3]; following 4 h of exposure to 10 μg/ml of EVG", "value": "13,381 ng/g"}
    ]}
  ]
}
